In US20200368312A1 (priority 2017, published 2020):
Converted amounts (≈) assume the structure as drawn. Read-outs that look alike come from different tables or passages of the source.

Tests used:
Format in all cases: cell-based
C. perfringens = C. perfringens MMX 8351 ATCC 13124
E. lenta = assay: Broth microdilution MIC, E. lenta (Table 7); conditions: E. lenta MMX 1287 ATCC 43055
S. hominis (CoNS) = assay: Broth microdilution MIC, S. hominis (CoNS) (Table 7); conditions: S. hominis (CoNS) MMX 667 ATCC 27844
S. epidermidis (CoNS) = assay: Broth microdilution MIC, S. epidermidis (CoNS) (Table 7)
Staphylococcus aureus = assay: microbe, parasite or virus in culture; conditions: for MIC: Staphylococcus aureus
P. anaerobius = assay: Broth microdilution MIC, P. anaerobius (Table 7); conditions: P. anaerobius MMX 1208 ATCC 27337
P. acnes = assay: Broth microdilution MIC, P. acnes (Table 7)
Clostridium difficile = assay: Broth microdilution MIC, C. difficile, anaerobic, supplemented Brucella Broth (Example 11, Table 7)
Enterococci = test system: Enterococci
P. micros = assay: Broth microdilution MIC, P. micros (Table 7); conditions: P. micros MMX 3546
S. haemolyticus (CoNS) = assay: Broth microdilution MIC, S. haemolyticus (CoNS) (Table 7); conditions: S. haemolyticus (CoNS) MMX 529 ATCC 29970
S. lugdenensis (CoNS) = assay: Broth microdilution MIC, S. lugdenensis (CoNS) (Table 7); conditions: S. lugdenensis (CoNS) MMX 8724
Streptococci = assay: Broth microdilution MIC, Streptococci (Example 11, Table 7)

## CN(C)c1cc(NC(=O)CNC(C)(C)C)c(O)c2c1C[C@H]1C[C@H]3[C@H](N(C)C)C(O)=C(C(N)=O)C(=O)[C@@]3(O)C(O)=C1C2=O [Tigecycline]
C. perfringens
  MIC: 0.12 µg/mL (≈ 0.205 µM)
E. lenta
  MIC: 0.25 µg/mL (≈ 0.427 µM)
S. hominis (CoNS)
  MIC: 0.12 µg/mL (≈ 0.205 µM)
S. epidermidis (CoNS); S. epidermidis (CoNS) MMX 762, MRSE
  MIC: 0.06 µg/mL (≈ 0.102 µM)
S. epidermidis (CoNS); S. epidermidis (CoNS) MMX 5145, MRSE
  MIC: 0.12 µg/mL (≈ 0.205 µM)
Staphylococcus aureus; MRSA strains (Table 5), […]
  RV40 activity as compared to Comparator: 16 ×
Staphylococcus aureus; ATCC 29213 / MSSA, S. aureus MMX 100 ATCC 29213, MSSA (quality control)
  MIC: 0.25 µg/mL (≈ 0.427 µM)
Staphylococcus aureus; ATCC 33591 / MRSA, S. aureus MMX 5717 ATCC 33591, MRSA
  MIC: 0.25 µg/mL (≈ 0.427 µM)
Staphylococcus aureus; ATCC BAA-1556 / MRSA, S. aureus MMX 4675 ATCC BAA-1556, MRSA
  MIC: 0.12 µg/mL (≈ 0.205 µM)
Staphylococcus aureus; ATCC BAA-1756 / MRSA, S. aureus MMX 2011 ATCC BAA-1756, MRSA
  MIC: 0.12 µg/mL (≈ 0.205 µM)
Staphylococcus aureus; MRSA, S. aureus MMX 2010, MRSA
  MIC: 0.09 µg/mL (≈ 0.154 µM)
Staphylococcus aureus; MRSA, S. aureus MMX 3982, MRSA
  MIC: 0.185 µg/mL (≈ 0.316 µM)
Staphylococcus aureus; MRSA, S. aureus MMX 5985, MRSA
  MIC: 0.185 µg/mL (≈ 0.316 µM)
Staphylococcus aureus; MRSA, S. aureus MMX 5999, MRSA
  MIC: 0.12 µg/mL (≈ 0.205 µM)
Staphylococcus aureus; MRSA, S. aureus MMX 7899, MRSA
  MIC: 0.12 µg/mL (≈ 0.205 µM)
Staphylococcus aureus; MRSA, S. aureus MMX 7900, MRSA
  MIC: 0.185 µg/mL (≈ 0.316 µM)
Staphylococcus aureus; MRSA, S. aureus MMX 7901, MRSA
  MIC: 0.12 µg/mL (≈ 0.205 µM)
Staphylococcus aureus; MRSA, S. aureus MMX 7902, MRSA
  MIC: 0.12 µg/mL (≈ 0.205 µM)
Staphylococcus aureus; MRSA, S. aureus MMX 7903, MRSA
  MIC: 0.12 µg/mL (≈ 0.205 µM)
Staphylococcus aureus; MSSA, S. aureus MMX 2490, MSSA
  MIC: 0.12 µg/mL (≈ 0.205 µM)
Staphylococcus aureus; MSSA, S. aureus MMX 7907, MSSA
  MIC: 0.12 µg/mL (≈ 0.205 µM)
Staphylococcus aureus; MSSA, S. aureus MMX 7908, MSSA
  MIC: 0.12 µg/mL (≈ 0.205 µM)
Staphylococcus aureus; S. aureus MMX 4665, hVISA
  MIC: 0.25 µg/mL (≈ 0.427 µM)
Staphylococcus aureus; S. aureus MMX 5989, Mu3, hVISA
  MIC: 0.75 µg/mL (≈ 1.28 µM)
Staphylococcus aureus; VISA, S. aureus MMX 1723, Mu50
  MIC: 0.5 µg/mL (≈ 0.854 µM)
Staphylococcus aureus; VISA, S. aureus MMX 2124, VISA, DaptoNS
  MIC: 0.045 µg/mL (≈ 0.0768 µM)
Staphylococcus aureus; VISA, S. aureus MMX 4658, VISA
  MIC: 0.12 µg/mL (≈ 0.205 µM)
Staphylococcus aureus; VISA, S. aureus MMX 4660, VISA
  MIC: 0.09 µg/mL (≈ 0.154 µM)
P. anaerobius
  MIC: 0.03 µg/mL (≈ 0.0512 µM)
P. acnes; P. acnes MMX 7942 ATCC 6919
  MIC: 0.03 µg/mL (≈ 0.0512 µM)
P. acnes; P. acnes MMX 7946 ATCC 11827
  MIC: 0.03 µg/mL (≈ 0.0512 µM)
Clostridium difficile; C. difficile MMX 4381 ATCC 700057, toxinAB-negative
  MIC: 0.18 µg/mL (≈ 0.307 µM)
Clostridium difficile; C. difficile MMX 4994 ATCC BAA-1805, ribotype 027
  MIC: 0.03 µg/mL (≈ 0.0512 µM)
Clostridium difficile; C. difficile MMX 5668 ATCC BAA-1870, NAP1/027
  MIC: 0.03 µg/mL (≈ 0.0512 µM)
Enterococci; E. faecalis MMX 101 ATCC 29212, VSE
  MIC: 0.06 µg/mL (≈ 0.102 µM)
Enterococci; E. faecalis MMX 1086, VanA VRE
  MIC: 0.12 µg/mL (≈ 0.205 µM)
Enterococci; E. faecalis MMX 4176
  MIC: 0.12 µg/mL (≈ 0.205 µM)
Enterococci; E. faecium MMX 173, VanB VRE
  MIC: 0.06 µg/mL (≈ 0.102 µM)
Enterococci; E. faecium MMX 851, VanA VRE
  MIC: 0.06 µg/mL (≈ 0.102 µM)
Enterococci; E. faecium MMX 4204
  MIC: 0.06 µg/mL (≈ 0.102 µM)
P. micros
  MIC: 0.015 µg/mL (≈ 0.0256 µM)
S. haemolyticus (CoNS)
  MIC: 0.06 µg/mL (≈ 0.102 µM)
S. lugdenensis (CoNS)
  MIC: 0.06 µg/mL (≈ 0.102 µM)
Streptococci; S. agalactiae MMX 4088
  MIC: 0.03 µg/mL (≈ 0.0512 µM)
Streptococci; S. agalactiae MMX 4115, erm^R
  MIC: 0.03 µg/mL (≈ 0.0512 µM)
Streptococci; S. anginosus (AGS) MMX 1201 ATCC 33397
  MIC: 0.008 µg/mL (≈ 0.0137 µM)
Streptococci; S. constellatus (AGS) MMX 5677
  MIC: 0.03 µg/mL (≈ 0.0512 µM)
Streptococci; S. dysgalactiae MMX 5121
  MIC: 0.06 µg/mL (≈ 0.102 µM)
Streptococci; S. dysgalactiae MMX 5123
  MIC: 0.015 µg/mL (≈ 0.0256 µM)
Streptococci; S. dysgalactiae MMX 5124
  MIC: 0.12 µg/mL (≈ 0.205 µM)
Streptococci; S. mitis (MGS) MMX 5798
  MIC: 0.03 µg/mL (≈ 0.0512 µM)
Streptococci; S. oralis (MGS) MMX 5821
  MIC: 0.06 µg/mL (≈ 0.102 µM)
Streptococci; S. pneumoniae MMX 432, PRSP
  MIC: 0.03 µg/mL (≈ 0.0512 µM)
Streptococci; S. pneumoniae MMX 747
  MIC: 0.03 µg/mL (≈ 0.0512 µM)
Streptococci; S. pneumoniae MMX 1195 ATCC 49619, PISP
  MIC: 0.06 µg/mL (≈ 0.102 µM)
Streptococci; S. pyogenes MMX 404 ATCC 19615
  MIC: 0.015 µg/mL (≈ 0.0256 µM)
Streptococci; S. pyogenes MMX 946, ermR
  MIC: 0.015 µg/mL (≈ 0.0256 µM)
Streptococci; S. pyogenes MMX 8778
  MIC: 0.03 µg/mL (≈ 0.0512 µM)
